For 13 molecules, EC50, IC50 and AC50 results are on record in ChEMBL document CHEMBL1201862, “PubChem BioAssay data set” (2004).

One assay addresses Ion channel NompC (Danio rerio, UniProt Q7T1G6). In words: Fluorescence counterscreen assay for TRPML3 agonists: dose response cell-based high-throughput screening assay to identify agonists of the transient receptor potential channel N1 (TRPN1). [Related pubchem assays: 1526, 1424, 1448 ]. It counts as functional. (The purpose of a counterscreen is to sort out artefacts and off-target activity.)

The target of another assay is T1, Mucolipin-3 (Homo sapiens, UniProt Q8TDD5).
T1 sequence (Q8TDD5 whole entry): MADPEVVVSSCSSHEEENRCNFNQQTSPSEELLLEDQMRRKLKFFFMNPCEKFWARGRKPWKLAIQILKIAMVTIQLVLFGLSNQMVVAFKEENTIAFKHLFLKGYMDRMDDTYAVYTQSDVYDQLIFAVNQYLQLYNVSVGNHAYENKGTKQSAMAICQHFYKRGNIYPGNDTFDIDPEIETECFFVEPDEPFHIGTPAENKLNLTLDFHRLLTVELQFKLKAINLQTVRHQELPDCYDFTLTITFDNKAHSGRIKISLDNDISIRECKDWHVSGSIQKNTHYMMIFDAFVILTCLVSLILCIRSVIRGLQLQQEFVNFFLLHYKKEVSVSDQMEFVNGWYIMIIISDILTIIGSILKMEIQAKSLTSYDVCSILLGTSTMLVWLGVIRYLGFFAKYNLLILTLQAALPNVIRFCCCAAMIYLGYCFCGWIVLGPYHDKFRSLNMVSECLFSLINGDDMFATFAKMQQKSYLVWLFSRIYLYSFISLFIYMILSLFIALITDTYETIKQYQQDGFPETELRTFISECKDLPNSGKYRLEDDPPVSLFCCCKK
In words: Dose response cell-based high-throughput screening assay for agonists of the transient receptor potential channel ML3 (TRPML3). [Related pubchem assays: 1526, 1424, 1448 ]. Format: functional.

Assay [1] addresses T2, Neuropeptide Y receptor type 2 (Homo sapiens, UniProt P49146).
T2 sequence (P49146 whole entry): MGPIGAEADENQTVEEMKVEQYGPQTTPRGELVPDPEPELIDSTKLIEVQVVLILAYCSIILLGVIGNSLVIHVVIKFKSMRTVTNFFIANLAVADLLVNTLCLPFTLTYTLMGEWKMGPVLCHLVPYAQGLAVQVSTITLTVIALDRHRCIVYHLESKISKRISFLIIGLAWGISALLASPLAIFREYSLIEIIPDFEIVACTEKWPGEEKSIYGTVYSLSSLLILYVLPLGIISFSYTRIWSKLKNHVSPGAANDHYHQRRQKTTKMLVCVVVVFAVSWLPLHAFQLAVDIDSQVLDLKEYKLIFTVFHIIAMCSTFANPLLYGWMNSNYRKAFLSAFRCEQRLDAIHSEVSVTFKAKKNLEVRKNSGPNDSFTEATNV
Format: functional, cell-based.

Assay [2] has as its target T3, Neuropeptide Y receptor type 1 (Homo sapiens, UniProt P25929).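 Further: HEK293 cells with a CNG channel challenged with NPY then isoproterenol; potency as antagonist that reverses NPY suppression of cAMP signal.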
T3 sequence (P25929 whole entry): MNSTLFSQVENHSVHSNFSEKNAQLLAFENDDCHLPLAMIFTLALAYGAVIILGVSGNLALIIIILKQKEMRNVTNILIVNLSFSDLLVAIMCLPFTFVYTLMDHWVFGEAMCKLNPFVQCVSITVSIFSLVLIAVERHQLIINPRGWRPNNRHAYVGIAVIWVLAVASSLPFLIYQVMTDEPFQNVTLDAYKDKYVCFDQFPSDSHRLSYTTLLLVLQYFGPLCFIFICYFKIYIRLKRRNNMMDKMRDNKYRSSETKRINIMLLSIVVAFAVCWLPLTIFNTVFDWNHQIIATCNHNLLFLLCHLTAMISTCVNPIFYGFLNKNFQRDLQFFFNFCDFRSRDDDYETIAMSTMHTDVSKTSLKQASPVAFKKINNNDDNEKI
Format: functional.

Assay [3] in a line: HEK-293T cell viability reduction – luminescence, B-cell screen hits, cytotoxicity control for BCR NF-kB inhibitor project, dose response (AID 489021).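 Further: HEK-293T cells carrying an NF-kB luciferase reporter; cells exposed to compound for about 14 hours before viability readout.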 Format: functional, cell-based.
Assay [4] deals with T4, Acyl-homoserine lactone acylase PvdQ (Pseudomonas aeruginosa (strain LESB58), UniProt Q9I194).
T4 sequence (Q9I194 whole entry): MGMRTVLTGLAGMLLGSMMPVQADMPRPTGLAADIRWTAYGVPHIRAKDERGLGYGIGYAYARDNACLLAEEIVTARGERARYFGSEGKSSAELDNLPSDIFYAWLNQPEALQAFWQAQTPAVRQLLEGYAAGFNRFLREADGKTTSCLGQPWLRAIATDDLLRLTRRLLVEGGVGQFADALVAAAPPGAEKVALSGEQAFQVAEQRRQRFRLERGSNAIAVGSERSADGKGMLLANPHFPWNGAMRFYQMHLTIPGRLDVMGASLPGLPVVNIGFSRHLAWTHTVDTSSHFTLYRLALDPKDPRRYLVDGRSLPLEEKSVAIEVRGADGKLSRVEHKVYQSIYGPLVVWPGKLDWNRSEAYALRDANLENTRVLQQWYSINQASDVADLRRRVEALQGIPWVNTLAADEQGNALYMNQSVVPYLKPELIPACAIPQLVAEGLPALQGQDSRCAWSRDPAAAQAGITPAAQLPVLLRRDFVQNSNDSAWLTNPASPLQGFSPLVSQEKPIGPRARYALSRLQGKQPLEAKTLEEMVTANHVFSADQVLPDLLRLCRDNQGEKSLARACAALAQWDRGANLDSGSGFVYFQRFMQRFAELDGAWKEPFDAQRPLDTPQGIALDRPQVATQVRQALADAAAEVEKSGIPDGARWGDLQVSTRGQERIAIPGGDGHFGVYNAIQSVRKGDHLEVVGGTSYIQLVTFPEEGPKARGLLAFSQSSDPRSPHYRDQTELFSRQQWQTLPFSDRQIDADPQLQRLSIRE
Description: PvdQ acylase enzyme activity blockers – biochemical, fluorescence, plate reader and imaging, cherry-picks, dose response (AID 493231).

Assay [5] can be described thus: Luminescence Cell-Based Dose Retest to Confirm Inhibitors of Cancer Stem Cells. [Related pubchem assays (depositor defined):AID2717, AID2721]. Format: functional. The conditions noted are these: Homo sapiens.
The next assay addresses T5, Protein skinhead-1 (Caenorhabditis elegans, UniProt P34707).
T5 sequence (P34707 whole entry): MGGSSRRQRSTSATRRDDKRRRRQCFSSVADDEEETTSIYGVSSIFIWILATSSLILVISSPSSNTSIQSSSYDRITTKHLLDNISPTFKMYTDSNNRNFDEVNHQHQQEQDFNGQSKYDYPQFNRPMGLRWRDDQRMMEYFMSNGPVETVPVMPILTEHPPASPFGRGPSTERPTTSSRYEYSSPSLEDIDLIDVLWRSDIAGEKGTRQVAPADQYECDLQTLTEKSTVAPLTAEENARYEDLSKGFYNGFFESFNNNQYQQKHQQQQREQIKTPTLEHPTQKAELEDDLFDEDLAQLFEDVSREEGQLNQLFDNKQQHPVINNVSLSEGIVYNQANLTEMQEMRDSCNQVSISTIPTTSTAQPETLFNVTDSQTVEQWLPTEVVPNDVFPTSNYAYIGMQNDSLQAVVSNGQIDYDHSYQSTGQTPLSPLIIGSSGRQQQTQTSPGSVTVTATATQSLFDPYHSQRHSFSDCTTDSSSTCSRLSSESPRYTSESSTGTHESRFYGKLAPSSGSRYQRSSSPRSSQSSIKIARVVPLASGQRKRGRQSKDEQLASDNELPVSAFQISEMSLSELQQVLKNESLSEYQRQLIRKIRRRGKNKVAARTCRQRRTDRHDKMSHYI
Format: functional.

A further assay deals with Procathepsin L (Homo sapiens, UniProt P07711).
Another assay addresses T6, Aspartyl aminopeptidase (Plasmodium falciparum 3D7, UniProt Q8I2J3).
T6 sequence (Q8I2J3 whole entry): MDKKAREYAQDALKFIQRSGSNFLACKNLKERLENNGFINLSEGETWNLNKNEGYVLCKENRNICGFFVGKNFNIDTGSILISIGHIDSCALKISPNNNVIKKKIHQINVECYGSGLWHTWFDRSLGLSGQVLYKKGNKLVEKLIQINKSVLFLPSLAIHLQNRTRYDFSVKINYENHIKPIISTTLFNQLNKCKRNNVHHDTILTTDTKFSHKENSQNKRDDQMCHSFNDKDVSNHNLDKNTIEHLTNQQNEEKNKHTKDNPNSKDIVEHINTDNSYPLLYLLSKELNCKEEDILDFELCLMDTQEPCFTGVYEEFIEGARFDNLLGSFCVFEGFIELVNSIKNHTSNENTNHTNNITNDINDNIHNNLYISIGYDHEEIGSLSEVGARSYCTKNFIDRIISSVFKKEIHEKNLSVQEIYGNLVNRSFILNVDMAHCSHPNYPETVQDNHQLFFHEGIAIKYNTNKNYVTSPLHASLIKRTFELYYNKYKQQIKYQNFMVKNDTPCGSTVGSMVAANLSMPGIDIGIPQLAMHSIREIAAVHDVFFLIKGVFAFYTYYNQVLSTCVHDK

Assay [6] in a line: Luminescence Cell-Based Dose Confirmation HTS to Identify Activators of 5'UTR Stem-Loop Driven Alpha-Synuclein mRNA Translation in H4 Neuroglioblastoma Cells. [Related pubchem assays: 1829 (Project Summary), 1814 (Primary HTS)]. It counts as functional.
The next assay concerns H4. Description: Luminescence Cell-Based Dose Response HTS to Identify Activators of 5'UTR Stem-Loop Driven Prion Protein mRNA Translation in H4 Neuroglioblastoma Cells. [Related pubchem assays: 1829 (Project Summary), 1814 (Primary HTS)]. It counts as functional. The conditions noted are these: Homo sapiens.
Assay [7] is described as follows: Luminescence Cell-Based Dose Response HTS to Identify Activators of Luciferase Translation or Activity in H4 […] Cells. [Related pubchem assays: 1829 (Project Summary), 1814 (Primary HTS)]. It counts as functional.

As usually defined, the EC50 is the midpoint of the concentration-response curve. The IC50 is the concentration at which inhibition is half-maximal. As a reminder, the AC50 is the midpoint of the concentration-response curve, whichever way the signal moves.

The source made the active and inactive calls.

Chain of Procathepsin L (P07711 whole entry): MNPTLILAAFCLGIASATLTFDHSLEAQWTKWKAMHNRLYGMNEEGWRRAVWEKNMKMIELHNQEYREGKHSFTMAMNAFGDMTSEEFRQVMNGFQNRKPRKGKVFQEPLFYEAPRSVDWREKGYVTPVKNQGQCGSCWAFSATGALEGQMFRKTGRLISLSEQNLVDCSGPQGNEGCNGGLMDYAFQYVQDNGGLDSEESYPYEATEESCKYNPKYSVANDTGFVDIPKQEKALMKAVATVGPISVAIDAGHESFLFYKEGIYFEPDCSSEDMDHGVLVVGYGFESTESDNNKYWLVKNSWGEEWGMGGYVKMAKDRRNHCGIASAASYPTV
Chain of Ion channel NompC (Q7T1G6 whole entry): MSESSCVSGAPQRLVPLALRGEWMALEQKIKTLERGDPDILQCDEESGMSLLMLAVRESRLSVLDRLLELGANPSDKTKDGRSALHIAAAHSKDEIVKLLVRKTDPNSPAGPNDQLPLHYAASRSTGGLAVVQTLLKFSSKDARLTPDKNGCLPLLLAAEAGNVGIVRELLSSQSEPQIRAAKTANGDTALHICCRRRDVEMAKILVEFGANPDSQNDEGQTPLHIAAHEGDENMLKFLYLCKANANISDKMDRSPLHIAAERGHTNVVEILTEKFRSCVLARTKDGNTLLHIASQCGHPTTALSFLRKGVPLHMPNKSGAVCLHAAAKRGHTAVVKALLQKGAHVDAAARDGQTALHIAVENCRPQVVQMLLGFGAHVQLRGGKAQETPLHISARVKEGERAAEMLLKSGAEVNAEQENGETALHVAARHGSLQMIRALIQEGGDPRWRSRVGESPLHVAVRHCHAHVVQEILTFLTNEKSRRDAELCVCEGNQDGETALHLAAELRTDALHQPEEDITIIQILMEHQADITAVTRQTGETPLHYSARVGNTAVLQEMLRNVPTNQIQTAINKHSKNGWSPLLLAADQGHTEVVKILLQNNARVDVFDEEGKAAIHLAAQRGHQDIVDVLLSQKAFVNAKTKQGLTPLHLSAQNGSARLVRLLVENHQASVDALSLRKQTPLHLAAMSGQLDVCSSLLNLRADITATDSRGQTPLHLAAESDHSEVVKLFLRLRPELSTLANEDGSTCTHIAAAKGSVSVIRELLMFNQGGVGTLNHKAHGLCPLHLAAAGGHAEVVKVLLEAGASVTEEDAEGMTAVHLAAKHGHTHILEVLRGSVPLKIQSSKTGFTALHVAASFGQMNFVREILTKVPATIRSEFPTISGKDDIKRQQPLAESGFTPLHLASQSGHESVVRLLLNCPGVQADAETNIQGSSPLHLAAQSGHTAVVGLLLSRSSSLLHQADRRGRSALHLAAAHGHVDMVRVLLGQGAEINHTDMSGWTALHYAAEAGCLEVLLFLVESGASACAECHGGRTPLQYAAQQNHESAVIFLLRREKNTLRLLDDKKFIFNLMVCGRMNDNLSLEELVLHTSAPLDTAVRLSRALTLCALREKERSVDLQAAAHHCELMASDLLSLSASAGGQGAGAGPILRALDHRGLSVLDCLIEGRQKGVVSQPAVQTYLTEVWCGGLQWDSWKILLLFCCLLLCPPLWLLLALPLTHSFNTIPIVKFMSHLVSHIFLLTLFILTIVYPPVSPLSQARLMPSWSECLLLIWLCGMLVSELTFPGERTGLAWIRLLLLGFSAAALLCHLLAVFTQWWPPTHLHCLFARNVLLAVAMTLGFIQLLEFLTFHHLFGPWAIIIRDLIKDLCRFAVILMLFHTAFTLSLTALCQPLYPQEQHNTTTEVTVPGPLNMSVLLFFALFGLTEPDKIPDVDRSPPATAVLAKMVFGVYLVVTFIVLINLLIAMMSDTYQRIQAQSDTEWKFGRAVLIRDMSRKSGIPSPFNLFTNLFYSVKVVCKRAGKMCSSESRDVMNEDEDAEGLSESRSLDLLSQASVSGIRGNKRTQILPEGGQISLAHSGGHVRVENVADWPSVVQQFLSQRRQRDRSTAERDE

On to `COc1ccc(S(=O)(=O)N2CCCCCC2)cc1N(C)S(=O)(=O)c1ccccc1`, for which the figures for the 50% effective concentration (EC50) on Ion channel NompC and on Mucolipin-3 were > 29.9 µM (not active) and 3.92 µM (active), respectively.
On to `COc1ccc(/C=N/NC(=O)CN(CCc2ccccc2)S(=O)(=O)c2ccc(NC(C)=O)cc2)cc1OC`, for which the IC50 in [1] is 3.55 µM (active); in [2], 10.4 µM (not active).
Take `N=c1ccn(Cc2c(Cl)cccc2Cl)cc1`: the IC50 in assay [3] was > 80 µM (inactive).
Take `COC(=O)c1ccc(NC(=S)N2CCCC2)cc1`: in assay [4], the AC50 is 10.3 µM (active).
With `CCc1ccc2[nH]c3nc(N/N=C/c4cccc(O)c4)nnc3c2c1`, the IC50 in [3] is > 80 µM (inactive). Moreover, the half-maximal activity concentration (AC50) in [5] is < 0.16 µM (active).
In the case of `Cc1ccc(S(=O)(=O)c2c(C)nn(C(C)(C)C)c2OC(=O)C2CCCC2)cc1`, the EC50 at Ion channel NompC and at Mucolipin-3 was > 29.9 µM (not active) each time.
Turning to `O=C(/C=C/c1ccccc1)Nn1cnnc1`, the IC50 was > 100 µM (inactive) at Protein skinhead-1, > 59.6 µM (not active) against Procathepsin L and 1.76 µM (active) at Aspartyl aminopeptidase.
For `CC(/C=C1\SC(=S)N(NC(=O)c2ccc(C)cc2)C1=O)=C\c1ccccc1`, the IC50 in assay [1] is listed as 20.6 µM (not active); in [2], > 35 µM (not active).
Taken in the same sequence, the figures for `CCCCCCNS(=O)(=O)c1ccc(NC(=O)C2CCCO2)cc1` (stereo unspecified) were 7.94 µM (active) and 13.7 µM (not active).
For `O=C(CNC(=O)c1ccccc1)NCCc1ccc(O)c(O)c1`, the figures for the IC50 on Procathepsin L and on Aspartyl aminopeptidase were > 59.6 µM (not active) and 1.81 µM (active), respectively.
In the same order, the values of `COc1cc(Br)cc(/C=N/c2nc[nH]n2)c1O` are > 59.6 µM (not active) and 2.35 µM (active).
Take `CCOC(=O)c1cc2c(s1)-c1c(C)cccc1OC2`: the values for the EC50 (in assay [6]; in the assay with H4; in assay [7]) were 39.8 µM (active), 30.9 µM (active) and 7.26 µM (active), respectively. In addition, the concentration at half-maximal activity (AC50) in assay [4] was 0.443 µM (active).
For the molecule `O=C(C=Cc1ccco1)c1cc(Cl)ccc1O`, the AC50 in assay [4] was 21.6 µM (active).
